{
  "source": "PubChem BioAssay AID192",
  "about": "(DTP/NCI, 2004)",
  "system": "BDF1 mice, B16 melanoma ip, median survival T/C",
  "experiment": "NCI In Vivo Anticancer Drug Screen. Data for tumor model B16 Melanoma (intraperitoneal) in B6D2F1 (BDF1) mice",
  "settings": "endpoint: median survival time, higher = longer survival",
  "procedure,_shortened": "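Each result divides a survival or tumor-size measurement in the compound-treated group by the same measurement in the vehicle group.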",
  "key": {"[1]": {"settings": "dose: 100.0 mg/kg/injection, schedule: Q01DX009 (ip), vehicle: Klucel (hydroxypropylcellulose) (HPC)"}, "[2]": {"settings": "dose: 50.0 mg/kg/injection, schedule: Q01DX009 (ip), vehicle: saline with Tween-80"}, "[3]": {"settings": "dose: 100.0 mg/kg/injection, schedule: Q01DX009 (ip), vehicle: saline with Tween-80"}, "[4]": {"settings": "dose: 12.5 mg/kg/injection, schedule: Q01DX009 (ip), vehicle: saline with Tween-80"}, "[5]": {"settings": "dose: 25.0 mg/kg/injection, schedule: Q01DX009 (ip), vehicle: saline with Tween-80"}, "[6]": {"settings": "dose: 100.0 mg/kg/injection, schedule: Q04DX003 (ip), vehicle: Klucel (hydroxypropylcellulose) (HPC)"}, "[7]": {"settings": "dose: 200.0 mg/kg/injection, schedule: Q04DX003 (ip), vehicle: Klucel (hydroxypropylcellulose) (HPC)"}},
  "note": "“And” between values parts separate entries of the source, which are not always exact repeats. Equal values may be shown once. Inconclusive results and toxic doses are left out.",
  "data": [
    {"molecule": "Cc1ccc(NC(=O)COc2ccc(Cl)cc2Cl)c([N+](=O)[O-])c1", "values": [
      {"measurement": "T/C", "setting": "dose: 25.0 mg/kg/injection, schedule: Q01DX009 (ip), vehicle: carboxymethylcellulose (CMC)", "value": "100 % of control"},
      {"measurement": "T/C", "setting": "dose: 50.0 mg/kg/injection, schedule: Q01DX009 (ip), vehicle: carboxymethylcellulose (CMC)", "value": "100 % of control"},
      {"measurement": "T/C", "setting": "[1]", "value": "88 % of control"},
      {"measurement": "T/C", "setting": "dose: 100.0 mg/kg/injection, schedule: Q01DX009 (ip), vehicle: carboxymethylcellulose (CMC)", "value": "100 % of control"}
    ]},
    {"molecule": "COc1cc2cc(c1Cl)N(C)C(=O)CC(OC(=O)C(C)N(C)C(=O)C(C)C)C1(C)OC1C(C)C1CC(O)(NC(=O)O1)C(OC)/C=C/C=C(C)C2", "note": "(stereo unspecified)", "values": [
      {"measurement": "T/C", "setting": "dose: 5.0 micrograms/kg/injection, schedule: Q01DX009 (ip), vehicle: saline + alcohol", "value": "171 % of control"},
      {"measurement": "T/C", "setting": "dose: 10.0 micrograms/kg/injection, schedule: Q01DX009 (ip), vehicle: saline + alcohol", "value": "177 % of control"}
    ]},
    {"molecule": "O=[N+]([O-])c1ccc(NCCO)c([N+](=O)[O-])c1", "values": [
      {"measurement": "T/C", "setting": "[2]", "value": "100 % of control"},
      {"measurement": "T/C", "setting": "[3]", "value": "100 % of control"},
      {"measurement": "T/C", "setting": "dose: 100.0 mg/kg/injection, schedule: Q04DX003 (ip), vehicle: saline with Tween-80", "value": "94 % of control"},
      {"measurement": "T/C", "setting": "dose: 200.0 mg/kg/injection, schedule: Q01DX009 (ip), vehicle: saline with Tween-80", "value": "92 % of control"},
      {"measurement": "T/C", "setting": "dose: 200.0 mg/kg/injection, schedule: Q04DX003 (ip), vehicle: saline with Tween-80", "value": "89 % of control"}
    ]},
    {"molecule": "OCC(F)(F)C(F)(F)C(F)(F)F", "values": [
      {"measurement": "T/C", "setting": "dose: 75.0 mg/kg/injection, schedule: Q01DX009 (ip), vehicle: saline", "value": "105 % of control"},
      {"measurement": "T/C", "setting": "dose: 150.0 mg/kg/injection, schedule: Q01DX009 (ip), vehicle: saline", "value": "106 % of control"},
      {"measurement": "T/C", "setting": "dose: 300.0 mg/kg/injection, schedule: Q01DX009 (ip), vehicle: saline", "value": "100 % of control"}
    ]},
    {"molecule": "CC(C)/C=C(\\C#N)C(=O)O", "values": [
      {"measurement": "T/C", "setting": "dose: 12.5 mg/kg/injection, schedule: Q01DX009 (ip), vehicle: Klucel (hydroxypropylcellulose) (HPC)", "value": "100 % of control"},
      {"measurement": "T/C", "setting": "dose: 25.0 mg/kg/injection, schedule: Q01DX009 (ip), vehicle: Klucel (hydroxypropylcellulose) (HPC)", "value": "100 % of control"},
      {"measurement": "T/C", "setting": "dose: 50.0 mg/kg/injection, schedule: Q01DX009 (ip), vehicle: Klucel (hydroxypropylcellulose) (HPC)", "value": "100 % of control"}
    ]},
    {"molecule": "Oc1cc2c(cc1O)[C@H]1c3ccc(O)c(O)c3OC[C@@]1(O)C2", "values": [
      {"measurement": "T/C", "setting": "dose: 25.0 mg/kg/injection, schedule: Q01DX009 (ip), vehicle: saline", "value": "100 % of control"},
      {"measurement": "T/C", "setting": "dose: 50.0 mg/kg/injection, schedule: Q01DX009 (ip), vehicle: saline", "value": "102 % of control"},
      {"measurement": "T/C", "setting": "dose: 100.0 mg/kg/injection, schedule: Q01DX009 (ip), vehicle: saline", "value": "103 % of control"},
      {"measurement": "T/C", "setting": "dose: 200.0 mg/kg/injection, schedule: Q01DX009 (ip), vehicle: saline", "value": "108 % of control"},
      {"measurement": "T/C", "setting": "dose: 400.0 mg/kg/injection, schedule: Q01DX009 (ip), vehicle: saline", "value": "103 % of control"}
    ]},
    {"molecule": "COc1ccc2c(c1[N+](=O)[O-])CC[C@@H]1[C@@H]2CC[C@]2(C)C(=O)CC[C@@H]12", "values": [
      {"measurement": "T/C", "setting": "[2]", "value": "87 % of control"},
      {"measurement": "T/C", "setting": "[3]", "value": "89 % of control"}
    ]},
    {"molecule": "CN=S(=O)(OCCCCCOS(=O)(=NC)c1ccccc1)c1ccccc1", "note": "(stereo unspecified)", "values": [
      {"measurement": "T/C", "setting": "dose: 1.5 mg/kg/injection, schedule: Q01DX009 (ip), vehicle: saline with Tween-80", "value": "111 % of control"},
      {"measurement": "T/C", "setting": "dose: 3.0 mg/kg/injection, schedule: Q01DX009 (ip), vehicle: saline with Tween-80", "value": "104 % of control"},
      {"measurement": "T/C", "setting": "dose: 6.0 mg/kg/injection, schedule: Q01DX009 (ip), vehicle: saline with Tween-80", "value": "122 % of control"},
      {"measurement": "T/C", "setting": "[4]", "value": "94 % of control"},
      {"measurement": "T/C", "setting": "dose: 24.0 mg/kg/injection, schedule: Q01DX009 (ip), vehicle: saline with Tween-80", "value": "169 % of control"},
      {"measurement": "T/C", "setting": "[5]", "value": "122 % of control"}
    ]},
    {"molecule": "COc1cc(C(=O)O)c(Br)cc1C", "values": [
      {"measurement": "T/C", "setting": "[6]", "value": "105 % of control"},
      {"measurement": "T/C", "setting": "[7]", "value": "97 % of control"}
    ]},
    {"molecule": "Nc1ccc(Cl)cc1N", "values": [
      {"measurement": "T/C", "setting": "[4]", "value": "104 % of control"},
      {"measurement": "T/C", "setting": "[5]", "value": "105 % of control"},
      {"measurement": "T/C", "setting": "[2]", "value": "102 % of control"},
      {"measurement": "T/C", "setting": "[3]", "value": "99 % of control"}
    ]},
    {"molecule": "O=C(N/N=C/c1ccc(N(CCCl)CCCl)cc1)c1ccc(C(=O)N/N=C/c2ccc(N(CCCl)CCCl)cc2)cc1", "values": [
      {"measurement": "T/C", "setting": "dose: 25.0 mg/kg/injection, schedule: Q04DX003 (ip), vehicle: Klucel (hydroxypropylcellulose) (HPC)", "value": "97 % of control"},
      {"measurement": "T/C", "setting": "dose: 50.0 mg/kg/injection, schedule: Q04DX003 (ip), vehicle: Klucel (hydroxypropylcellulose) (HPC)", "value": "90 % of control and 100 % of control"},
      {"measurement": "T/C", "setting": "[6]", "value": "97 % of control"},
      {"measurement": "T/C", "setting": "[7]", "value": "90 % of control and 95 % of control"}
    ]},
    {"molecule": "Cc1cc([N+](=O)[O-])c(N)c([N+](=O)[O-])c1", "values": [
      {"measurement": "T/C", "setting": "[1]", "value": "100 % of control"},
      {"measurement": "T/C", "setting": "dose: 200.0 mg/kg/injection, schedule: Q01DX009 (ip), vehicle: Klucel (hydroxypropylcellulose) (HPC)", "value": "93 % of control"},
      {"measurement": "T/C", "setting": "dose: 400.0 mg/kg/injection, schedule: Q01DX009 (ip), vehicle: Klucel (hydroxypropylcellulose) (HPC)", "value": "100 % of control"}
    ]},
    {"molecule": "FC(F)(F)c1ccc2c(c1)N(CCCN1CCN(CCN3CCCCC3)CC1)c1ccccc1S2", "values": [
      {"measurement": "T/C", "setting": "dose: 0.78 mg/kg/injection, schedule: Q01DX009 (ip), vehicle: saline", "value": "100 % of control"},
      {"measurement": "T/C", "setting": "dose: 1.56 mg/kg/injection, schedule: Q01DX009 (ip), vehicle: saline", "value": "105 % of control"},
      {"measurement": "T/C", "setting": "dose: 6.25 mg/kg/injection, schedule: Q01DX009 (ip), vehicle: saline", "value": "97 % of control"}
    ]}
  ]
}
